Measurements published in the NIST ThermoML archive (doi:10.1021/je400332j).
± gives the expanded uncertainty stated by the source.

Assay: xn = mol fraction of the nth substance listed
Conditions: 101 kPa, Liquid; for viscosity: Concentric cylinders viscometry; for mass density: Vibrating tube method

CCCn1cc[n+](C)c1.F[B-](F)(F)F [1-propyl-3-methylimidazolium tetrafluoroborate] + CCCCCCn1cc[n+](C)c1.F[B-](F)(F)F
Conditions | mass density [kg/m3] | viscosity [mPa·s]
293.15 K, x1 = 0.1006 | 1154.7 ± 1.1 | 257.8 ± 22
293.15 K, x1 = 0.2005 | 1162.5 ± 1.1 | 233.5 ± 19
293.15 K, x1 = 0.2995 | 1170.4 ± 1.1 | 212.7 ± 18
293.15 K, x1 = 0.3996 | 1179.1 ± 1.1 | 195.9 ± 16
293.15 K, x1 = 0.4991 | 1188.1 ± 1.1 | 176.5 ± 14
293.15 K, x1 = 0.601 | 1197.2 ± 1.1 | 158.4 ± 13
293.15 K, x1 = 0.7001 | 1207.1 ± 1.1 | 141.4 ± 12
293.15 K, x1 = 0.8 | 1217.3 ± 1.1 | 125.1 ± 10
293.15 K, x1 = 0.8987 | 1228 ± 1.1 | 110.2 ± 9
293.15 K, x1 = 1 | 1239.3 ± 1.1 | 95.44 ± 7.7
298.15 K, x1 = 0.1006 | 1151.2 ± 1.1 | 190.4 ± 16
298.15 K, x1 = 0.2005 | 1159.1 ± 1.1 | 173.1 ± 14
298.15 K, x1 = 0.2995 | 1167.1 ± 1.1 | 158.5 ± 13
298.15 K, x1 = 0.3996 | 1175.6 ± 1.1 | 146.3 ± 12
298.15 K, x1 = 0.4991 | 1184.5 ± 1.1 | 132.5 ± 11
298.15 K, x1 = 0.601 | 1193.7 ± 1.1 | 119.6 ± 9.8
298.15 K, x1 = 0.7001 | 1203.6 ± 1.1 | 107.2 ± 8.7
298.15 K, x1 = 0.8 | 1213.9 ± 1.1 | 95.66 ± 7.8
298.15 K, x1 = 0.8987 | 1224.5 ± 1.1 | 84.81 ± 6.9
298.15 K, x1 = 1 | 1235.7 ± 1.1 | 74.04 ± 6
303.15 K, x1 = 0.1006 | 1147.8 ± 1.1 | 143.5 ± 12
303.15 K, x1 = 0.2005 | 1155.6 ± 1.1 | 131.1 ± 11
303.15 K, x1 = 0.2995 | 1163.5 ± 1.1 | 120.5 ± 9.8
303.15 K, x1 = 0.3996 | 1172 ± 1.1 | 111.6 ± 9.1
303.15 K, x1 = 0.4991 | 1181 ± 1.1 | 101.6 ± 8.3
303.15 K, x1 = 0.601 | 1190.2 ± 1.1 | 92.16 ± 7.5
303.15 K, x1 = 0.7001 | 1200 ± 1 | 83.12 ± 6.7
303.15 K, x1 = 0.8 | 1210.2 ± 1.1 | 74.61 ± 6
303.15 K, x1 = 0.8987 | 1220.8 ± 1.1 | 66.57 ± 5.4
303.15 K, x1 = 1 | 1232 ± 1.1 | 58.59 ± 4.7
308.15 K, x1 = 0.1006 | 1144.4 ± 1.1 | 110.3 ± 9
308.15 K, x1 = 0.2005 | 1152.1 ± 1.1 | 101.2 ± 8.2
308.15 K, x1 = 0.2995 | 1160.1 ± 1.1 | 93.37 ± 7.6
308.15 K, x1 = 0.3996 | 1168.6 ± 1.1 | 86.79 ± 7
308.15 K, x1 = 0.4991 | 1177.4 ± 1.1 | 79.34 ± 6.4
308.15 K, x1 = 0.601 | 1186.7 ± 1.1 | 72.34 ± 5.9
308.15 K, x1 = 0.7001 | 1196.4 ± 1.1 | 65.59 ± 5.3
308.15 K, x1 = 0.8 | 1206.6 ± 1.1 | 59.23 ± 4.8
308.15 K, x1 = 0.8987 | 1217.2 ± 1.1 | 53.19 ± 4.3
308.15 K, x1 = 1 | 1228.3 ± 1.1 | 47.16 ± 3.8
313.15 K, x1 = 0.1006 | 1141 ± 1 | 86.32 ± 7
313.15 K, x1 = 0.2005 | 1148.6 ± 1.1 | 79.47 ± 6.4
313.15 K, x1 = 0.2995 | 1156.6 ± 1.1 | 73.61 ± 6
313.15 K, x1 = 0.3996 | 1165.1 ± 1.1 | 68.66 ± 5.5
313.15 K, x1 = 0.4991 | 1173.9 ± 1.1 | 63.07 ± 5.1
313.15 K, x1 = 0.601 | 1183.2 ± 1.1 | 57.75 ± 4.7
313.15 K, x1 = 0.7001 | 1192.8 ± 1.1 | 52.63 ± 4.2
313.15 K, x1 = 0.8 | 1203 ± 1.1 | 47.79 ± 3.9
313.15 K, x1 = 0.8987 | 1213.5 ± 1.1 | 43.19 ± 3.5
313.15 K, x1 = 1 | 1224.7 ± 1.1 | 38.56 ± 3.1
318.15 K, x1 = 0.1006 | 1137.6 ± 1 | 68.62 ± 5.5
318.15 K, x1 = 0.2005 | 1145.2 ± 1.1 | 63.43 ± 5.1
318.15 K, x1 = 0.2995 | 1153.1 ± 1.1 | 58.96 ± 4.8
318.15 K, x1 = 0.3996 | 1161.6 ± 1.1 | 55.18 ± 4.5
318.15 K, x1 = 0.4991 | 1170.4 ± 1.1 | 50.91 ± 4.1
318.15 K, x1 = 0.601 | 1179.7 ± 1.1 | 46.8 ± 3.8
318.15 K, x1 = 0.7001 | 1189.3 ± 1.1 | 42.87 ± 3.5
318.15 K, x1 = 0.8 | 1199.4 ± 1.1 | 39.14 ± 3.1
318.15 K, x1 = 0.8987 | 1209.9 ± 1.1 | 35.56 ± 2.9
318.15 K, x1 = 1 | 1221 ± 1.1 | 31.98 ± 2.6
323.15 K, x1 = 0.1006 | 1134.2 ± 1 | 55.36 ± 4.5
323.15 K, x1 = 0.2005 | 1141.7 ± 1.1 | 51.35 ± 4.1
323.15 K, x1 = 0.2995 | 1149.6 ± 1.1 | 47.9 ± 3.9
323.15 K, x1 = 0.3996 | 1158.1 ± 1.1 | 44.99 ± 3.6
323.15 K, x1 = 0.4991 | 1166.9 ± 1.1 | 41.66 ± 3.4
323.15 K, x1 = 0.601 | 1176.1 ± 1.1 | 38.47 ± 3.1
323.15 K, x1 = 0.7001 | 1185.8 ± 1.1 | 35.41 ± 2.9
323.15 K, x1 = 0.8 | 1195.8 ± 1.1 | 32.48 ± 2.6
323.15 K, x1 = 0.8987 | 1206.2 ± 1.1 | 29.67 ± 2.4
323.15 K, x1 = 1 | 1217.4 ± 1.1 | 26.83 ± 2.2
328.15 K, x1 = 0.1006 | 1130.8 ± 1 | 45.26 ± 3.6
328.15 K, x1 = 0.2005 | 1138.3 ± 1 | 42.13 ± 3.4
328.15 K, x1 = 0.2995 | 1146.2 ± 1.1 | 39.43 ± 3.2
328.15 K, x1 = 0.3996 | 1154.7 ± 1.1 | 37.15 ± 3
328.15 K, x1 = 0.4991 | 1163.4 ± 1.1 | 34.53 ± 2.8
328.15 K, x1 = 0.601 | 1172.6 ± 1.1 | 32.02 ± 2.6
328.15 K, x1 = 0.7001 | 1182.3 ± 1.1 | 29.61 ± 2.4
328.15 K, x1 = 0.8 | 1192.1 ± 1.1 | 27.28 ± 2.2
328.15 K, x1 = 0.8987 | 1202.7 ± 1.1 | 25.04 ± 2
328.15 K, x1 = 1 | 1213.8 ± 1.1 | 22.77 ± 1.8
333.15 K, x1 = 0.1006 | 1127.4 ± 1 | 37.44 ± 3
333.15 K, x1 = 0.2005 | 1134.9 ± 1 | 34.97 ± 2.8
333.15 K, x1 = 0.2995 | 1142.7 ± 1.1 | 32.83 ± 2.6
333.15 K, x1 = 0.3996 | 1151.3 ± 1.1 | 31.04 ± 2.5
333.15 K, x1 = 0.4991 | 1159.9 ± 1.1 | 28.95 ± 2.3
333.15 K, x1 = 0.601 | 1169.2 ± 1.1 | 26.95 ± 2.2
333.15 K, x1 = 0.7001 | 1178.7 ± 1.1 | 25.03 ± 2
333.15 K, x1 = 0.8 | 1188.6 ± 1.1 | 23.15 ± 1.9
333.15 K, x1 = 0.8987 | 1199.1 ± 1.1 | 21.37 ± 1.7
333.15 K, x1 = 1 | 1210.2 ± 1.1 | 19.54 ± 1.6
338.15 K, x1 = 0.1006 | 1124.1 ± 1 | 31.31 ± 2.5
338.15 K, x1 = 0.2005 | 1131.5 ± 1 | 29.33 ± 2.4
338.15 K, x1 = 0.2995 | 1139.3 ± 1 | 27.63 ± 2.2
338.15 K, x1 = 0.3996 | 1147.8 ± 1.1 | 26.21 ± 2.1
338.15 K, x1 = 0.4991 | 1156.5 ± 1.1 | 24.53 ± 2
338.15 K, x1 = 0.601 | 1165.7 ± 1.1 | 22.92 ± 1.8
338.15 K, x1 = 0.7001 | 1175.2 ± 1.1 | 21.38 ± 1.7
338.15 K, x1 = 0.8 | 1185.2 ± 1.1 | 19.85 ± 1.6
338.15 K, x1 = 0.8987 | 1195.5 ± 1.1 | 18.4 ± 1.5
338.15 K, x1 = 1 | 1206.6 ± 1.1 | 16.92 ± 1.4
343.15 K, x1 = 0.1006 | 1120.7 ± 1 | 26.45 ± 2.1
343.15 K, x1 = 0.2005 | 1128.1 ± 1 | 24.83 ± 2
343.15 K, x1 = 0.2995 | 1135.9 ± 1 | 23.46 ± 1.9
343.15 K, x1 = 0.3996 | 1144.4 ± 1.1 | 22.3 ± 1.8
343.15 K, x1 = 0.4991 | 1153 ± 1.1 | 20.96 ± 1.7
343.15 K, x1 = 0.601 | 1162.2 ± 1.1 | 19.65 ± 1.6
343.15 K, x1 = 0.7001 | 1171.7 ± 1.1 | 18.4 ± 1.5
343.15 K, x1 = 0.8 | 1181.6 ± 1.1 | 17.19 ± 1.4
343.15 K, x1 = 0.8987 | 1192 ± 1.1 | 15.98 ± 1.3
343.15 K, x1 = 1 | 1203 ± 1.1 | 14.77 ± 1.2
